For 6 compounds, IC50 results are on record in patent US12258327B2, “5-membered heteroaryl-containing aminopyridine compounds as EGFR inhibitors” (YUHAN CORPORATION, priority 2021, dated 2025).

Each structure is given as a SMILES string. Where two headings read alike, the source gives them in different places. A value given as a limit tells only on which side of the number the result lay.

The target of experiment [1] is EGFR wildtype (WT) (Homo sapiens, UniProt P00533). Put plainly: Biochemical EGFR kinase assay (Lance Ultra TR-FRET), wildtype. In short, it runs like this:
(§1)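 Enzyme reactions lasted 1 hour at room temperature with test compounds between 0.003 and 10 μM, followed by 10 mM EDTA quench.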
Background: TR-FRET usually uses a lanthanide donor and a delayed reading to cut background.

Experiment [2] addresses EGFR L858R/C797S (Homo sapiens, UniProt P00533, C797S/L858R). Put plainly: Biochemical EGFR kinase assay (Lance Ultra TR-FRET), double mutant L858R/C797S. In short, it runs like this: as §1
Experiment [3] deals with EGFR L858R/T790M/C797S (Homo sapiens, UniProt P00533, C797S/L858R/T790M). The experiment is described as follows: Biochemical EGFR kinase assay (Lance Ultra TR-FRET), triple mutant L858R/T790M/C797S. Summed up: as §1
The target of experiment [4] is EGFR del19/T790M/C797S (Homo sapiens, UniProt P00533, C797S/DEL746-750/T790M). Put plainly: Biochemical EGFR kinase assay (Lance Ultra TR-FRET), triple mutant del19/T790M/C797S. In short, it runs like this: as §1
The target of experiment [5] is EGFR del19/C797S (Homo sapiens, UniProt P00533, C797S/DEL746-750). Put plainly: Biochemical EGFR kinase assay (Lance Ultra TR-FRET), double mutant del19/C797S. In short, it runs like this:
as §1

The mark [6] stands for this setting: IC50 WT (nM) 100 μM ATP, 100 μM ATP.
Where [7] appears, read: Km ATP, read-out: IC50 WT (nM) Km ATP.
Where [8] appears, read: IC50 L858R/C797S (nM) 100 μM ATP, 100 μM ATP.
The mark [9] stands for this setting: Km ATP, read-out: IC50 L858R/C797S (nM) Km ATP.
[10] abbreviates: IC50 L858R/T790M/C797S (nM) 100 μM ATP, 100 μM ATP.
[11] abbreviates: Km ATP, read-out: IC50 L858R/T790M/C797S (nM) Km ATP.
Where [12] appears, read: IC50 del19/T790M/C797S (nM) 100 μM ATP, 100 μM ATP.
Setting [13] is: Km ATP, read-out: IC50 del19/T790M/C797S (nM) Km ATP.
Setting [14] is: IC50 del19/C797S (nM) 100 μM ATP, 100 μM ATP.
The mark [15] stands for this setting: Km ATP, read-out: IC50 del19/C797S (nM) Km ATP.

Chain of EGFR L858R/T790M/C797S (P00533 25-1210 T790M/C797S/L858R): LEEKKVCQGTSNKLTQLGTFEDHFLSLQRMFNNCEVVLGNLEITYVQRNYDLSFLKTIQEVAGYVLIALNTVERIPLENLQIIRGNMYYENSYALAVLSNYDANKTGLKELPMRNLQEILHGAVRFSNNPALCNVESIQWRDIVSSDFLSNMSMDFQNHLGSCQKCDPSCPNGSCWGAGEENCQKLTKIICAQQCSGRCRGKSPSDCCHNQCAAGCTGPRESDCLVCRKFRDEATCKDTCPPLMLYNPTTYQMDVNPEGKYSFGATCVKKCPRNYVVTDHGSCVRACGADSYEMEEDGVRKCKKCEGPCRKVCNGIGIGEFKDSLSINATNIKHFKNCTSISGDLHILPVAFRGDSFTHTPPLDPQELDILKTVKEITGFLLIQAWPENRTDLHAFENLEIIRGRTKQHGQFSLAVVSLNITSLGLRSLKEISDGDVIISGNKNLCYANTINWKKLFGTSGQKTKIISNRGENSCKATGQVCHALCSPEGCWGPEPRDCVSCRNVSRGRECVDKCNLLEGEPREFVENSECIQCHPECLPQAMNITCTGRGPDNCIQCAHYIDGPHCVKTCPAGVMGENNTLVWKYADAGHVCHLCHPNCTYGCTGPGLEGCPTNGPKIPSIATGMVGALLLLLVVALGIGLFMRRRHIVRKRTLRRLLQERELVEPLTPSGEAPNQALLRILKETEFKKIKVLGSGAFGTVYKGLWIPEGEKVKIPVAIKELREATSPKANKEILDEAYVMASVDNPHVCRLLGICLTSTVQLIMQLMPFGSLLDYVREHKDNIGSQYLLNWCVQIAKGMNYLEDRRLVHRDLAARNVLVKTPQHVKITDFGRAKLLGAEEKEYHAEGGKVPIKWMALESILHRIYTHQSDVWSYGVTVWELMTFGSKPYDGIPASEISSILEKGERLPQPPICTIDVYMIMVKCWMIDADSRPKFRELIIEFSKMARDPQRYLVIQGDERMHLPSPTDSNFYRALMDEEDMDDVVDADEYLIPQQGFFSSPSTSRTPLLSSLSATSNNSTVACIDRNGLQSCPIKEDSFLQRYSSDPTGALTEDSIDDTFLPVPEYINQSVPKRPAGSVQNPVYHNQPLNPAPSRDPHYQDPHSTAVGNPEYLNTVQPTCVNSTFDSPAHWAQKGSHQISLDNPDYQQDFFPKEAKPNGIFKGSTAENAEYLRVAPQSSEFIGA
Chain of EGFR wildtype (WT) (P00533 25-1210): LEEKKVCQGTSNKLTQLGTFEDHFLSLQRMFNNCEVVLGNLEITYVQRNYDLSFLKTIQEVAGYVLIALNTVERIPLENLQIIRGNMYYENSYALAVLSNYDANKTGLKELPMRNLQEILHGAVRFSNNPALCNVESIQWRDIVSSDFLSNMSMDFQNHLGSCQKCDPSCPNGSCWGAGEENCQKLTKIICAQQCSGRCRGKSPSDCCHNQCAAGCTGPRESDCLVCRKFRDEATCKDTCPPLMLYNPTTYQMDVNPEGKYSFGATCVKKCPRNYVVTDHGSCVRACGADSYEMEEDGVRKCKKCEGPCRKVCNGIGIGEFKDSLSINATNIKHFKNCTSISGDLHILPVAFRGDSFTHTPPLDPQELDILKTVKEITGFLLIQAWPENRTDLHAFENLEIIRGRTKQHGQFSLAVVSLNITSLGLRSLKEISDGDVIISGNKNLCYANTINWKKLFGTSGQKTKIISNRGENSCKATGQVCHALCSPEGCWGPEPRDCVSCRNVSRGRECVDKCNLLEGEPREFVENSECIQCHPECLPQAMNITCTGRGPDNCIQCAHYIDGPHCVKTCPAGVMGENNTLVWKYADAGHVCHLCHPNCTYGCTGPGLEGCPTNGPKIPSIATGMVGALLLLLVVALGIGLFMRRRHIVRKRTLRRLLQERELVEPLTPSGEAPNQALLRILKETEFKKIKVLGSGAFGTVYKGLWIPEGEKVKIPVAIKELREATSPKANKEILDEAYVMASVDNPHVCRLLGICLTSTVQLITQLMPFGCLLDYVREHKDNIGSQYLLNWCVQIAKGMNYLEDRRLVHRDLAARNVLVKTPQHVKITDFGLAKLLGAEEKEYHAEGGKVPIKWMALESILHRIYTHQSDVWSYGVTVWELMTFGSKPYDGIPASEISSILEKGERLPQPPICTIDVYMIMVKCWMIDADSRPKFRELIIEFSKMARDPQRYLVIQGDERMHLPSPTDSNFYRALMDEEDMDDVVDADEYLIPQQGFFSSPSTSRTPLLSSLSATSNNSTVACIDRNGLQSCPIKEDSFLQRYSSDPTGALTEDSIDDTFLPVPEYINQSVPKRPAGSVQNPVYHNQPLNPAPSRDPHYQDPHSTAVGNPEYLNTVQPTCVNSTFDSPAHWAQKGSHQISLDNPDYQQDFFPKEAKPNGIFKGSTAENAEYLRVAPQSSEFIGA
Chain of EGFR del19/C797S (P00533 with tags, fused parts or gaps DEL746-750/C797S): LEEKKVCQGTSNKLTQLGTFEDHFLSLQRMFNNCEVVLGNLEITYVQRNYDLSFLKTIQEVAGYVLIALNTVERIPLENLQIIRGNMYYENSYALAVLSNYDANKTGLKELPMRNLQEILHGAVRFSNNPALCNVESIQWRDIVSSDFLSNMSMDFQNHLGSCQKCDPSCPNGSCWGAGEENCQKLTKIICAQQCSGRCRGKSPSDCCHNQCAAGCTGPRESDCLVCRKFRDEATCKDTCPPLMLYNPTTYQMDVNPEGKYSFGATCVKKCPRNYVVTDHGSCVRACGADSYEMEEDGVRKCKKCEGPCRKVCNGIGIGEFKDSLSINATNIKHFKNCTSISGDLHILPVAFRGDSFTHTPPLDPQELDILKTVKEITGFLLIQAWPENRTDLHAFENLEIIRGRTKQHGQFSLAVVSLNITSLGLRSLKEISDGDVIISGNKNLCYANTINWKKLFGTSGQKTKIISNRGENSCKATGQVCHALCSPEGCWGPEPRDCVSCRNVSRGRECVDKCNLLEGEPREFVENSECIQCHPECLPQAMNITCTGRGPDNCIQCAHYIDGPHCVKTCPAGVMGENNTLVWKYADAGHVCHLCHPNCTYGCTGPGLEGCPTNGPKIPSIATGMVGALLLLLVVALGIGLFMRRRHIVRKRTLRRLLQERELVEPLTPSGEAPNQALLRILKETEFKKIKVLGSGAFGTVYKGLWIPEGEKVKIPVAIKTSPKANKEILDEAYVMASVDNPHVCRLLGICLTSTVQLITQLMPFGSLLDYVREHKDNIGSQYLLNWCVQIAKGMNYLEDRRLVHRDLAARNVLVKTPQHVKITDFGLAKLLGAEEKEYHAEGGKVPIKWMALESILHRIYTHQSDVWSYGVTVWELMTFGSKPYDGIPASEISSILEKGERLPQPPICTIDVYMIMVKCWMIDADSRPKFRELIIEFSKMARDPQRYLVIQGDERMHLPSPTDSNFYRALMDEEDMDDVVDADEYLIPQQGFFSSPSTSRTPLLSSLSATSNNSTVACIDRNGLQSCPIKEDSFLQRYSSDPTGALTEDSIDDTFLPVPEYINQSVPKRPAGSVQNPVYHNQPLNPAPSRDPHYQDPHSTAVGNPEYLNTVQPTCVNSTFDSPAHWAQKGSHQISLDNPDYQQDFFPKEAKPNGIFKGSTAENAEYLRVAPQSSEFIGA
Chain of EGFR del19/T790M/C797S (P00533 with tags, fused parts or gaps DEL746-750/T790M/C797S): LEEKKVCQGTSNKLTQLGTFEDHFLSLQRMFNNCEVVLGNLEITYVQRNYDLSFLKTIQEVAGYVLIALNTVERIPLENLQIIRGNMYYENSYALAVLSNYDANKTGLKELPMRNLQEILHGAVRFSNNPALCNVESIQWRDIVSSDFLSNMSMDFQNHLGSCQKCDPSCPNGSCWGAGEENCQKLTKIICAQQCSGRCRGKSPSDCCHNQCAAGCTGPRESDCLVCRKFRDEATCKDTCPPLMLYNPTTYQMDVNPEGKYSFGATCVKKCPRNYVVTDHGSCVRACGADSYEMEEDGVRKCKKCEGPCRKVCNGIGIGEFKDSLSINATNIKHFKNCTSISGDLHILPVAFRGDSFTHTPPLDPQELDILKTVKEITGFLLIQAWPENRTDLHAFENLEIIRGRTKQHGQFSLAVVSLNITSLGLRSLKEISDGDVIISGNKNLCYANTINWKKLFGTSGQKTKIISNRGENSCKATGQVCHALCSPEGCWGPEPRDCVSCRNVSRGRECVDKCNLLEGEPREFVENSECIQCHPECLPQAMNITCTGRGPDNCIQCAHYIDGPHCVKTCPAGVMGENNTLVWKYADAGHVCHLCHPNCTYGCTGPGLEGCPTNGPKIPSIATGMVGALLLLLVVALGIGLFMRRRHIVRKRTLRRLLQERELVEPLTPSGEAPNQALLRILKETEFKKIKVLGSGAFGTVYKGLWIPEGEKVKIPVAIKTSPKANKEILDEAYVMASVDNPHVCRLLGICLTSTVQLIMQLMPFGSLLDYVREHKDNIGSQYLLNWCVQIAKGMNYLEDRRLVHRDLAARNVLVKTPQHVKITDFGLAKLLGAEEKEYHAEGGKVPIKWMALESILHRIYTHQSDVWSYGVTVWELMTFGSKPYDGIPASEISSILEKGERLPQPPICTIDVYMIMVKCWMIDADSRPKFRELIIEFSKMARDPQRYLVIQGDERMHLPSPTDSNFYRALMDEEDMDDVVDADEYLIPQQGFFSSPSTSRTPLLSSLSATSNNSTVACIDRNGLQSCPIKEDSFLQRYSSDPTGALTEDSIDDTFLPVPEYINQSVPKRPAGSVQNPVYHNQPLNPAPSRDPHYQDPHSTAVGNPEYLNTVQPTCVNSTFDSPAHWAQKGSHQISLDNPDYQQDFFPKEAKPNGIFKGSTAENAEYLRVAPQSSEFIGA

Regarding `O=S(=O)(C1CC1)n1cc(-c2nccc(Nc3cc(N[C@H]4CC[C@@H](NCCF)CC4)c(-c4csc(C(F)(F)F)n4)cn3)n2)cn1` [Example 50, N^2-(2-(1-(Cyclopropylsulfonyl)-1H-pyrazol-4-yl)pyrimidin-4-yl)-N^4-((1s,4s)-4-((2-fluoroethyl)amino)cyclohexyl)-5-(2-(trifluoromethyl)thiazol-4-yl)pyridine-2,4-diamine], the IC50 in experiment [1] (read-out: IC50 WT (nM) 100 μM ATP, 100 μM ATP) is more than 10000 nM; in experiment [2] (read-out: IC50 L858R/C797S (nM) 100 μM ATP, 100 μM ATP), 42.2 nM; in experiment [3] (read-out: IC50 L858R/T790M/C797S (nM) 100 μM ATP, 100 μM ATP), 1.6 nM; in experiment [4] (read-out: IC50 del19/T790M/C797S (nM) 100 μM ATP, 100 μM ATP) it was 1.1 nM; in experiment [5] (read-out: IC50 del19/C797S (nM) 100 μM ATP, 100 μM ATP), 25.6 nM.
For `C[C@]1(O)CC[C@H](CNc2cc(Nc3ccnc(-c4cnn(S(=O)(=O)C5CC5)c4)n3)ncc2-c2ccn(C(F)F)n2)CC1` [Example 36, (1r,4r)-4-(((2-((2-(1-(Cyclopropylsulfonyl)-1H-pyrazol-4-yl)pyrimidin-4-yl)amino)-5-(1-(difluoromethyl)-1H-pyrazol-3-yl)pyridin-4-yl)amino)methyl)-1-methylcyclohexan-1-ol], the IC50 is more than 10000 nM in experiment [1] (setting [6]); 25.1 nM in experiment [1] (setting [7]); 33.8 nM in experiment [2] (setting [8]); 3.9 nM in experiment [2] (setting [9]); 1.2 nM in experiment [3] (setting [10]); 0.3 nM in experiment [3] (setting [11]). In addition, the IC50 was found to be 1 nM in experiment [4] (setting [12]), 0.8 nM in experiment [4] (setting [13]), 6.8 nM in experiment [5] (setting [14]) and 5.4 nM in experiment [5] (setting [15]).
With `Cc1nn(CC(F)(F)F)cc1-c1nccc(Nc2cc(N[C@H]3CC[C@@](C)(O)CC3)c(-c3cc(C(F)(F)F)n(C)n3)cn2)n1` [Example 332, (1s,4s)-1-Methyl-4-((2-((2-(3-methyl-1-(2,2,2-trifluoroethyl)-1H-pyrazol-4-yl)pyrimidin-4-yl)amino)-5-(1-methyl-5-(trifluoromethyl)-1H-pyrazol-3-yl)pyridin-4-yl)amino)cyclohexan-1-ol], the IC50 is 98 nM in experiment [1] (Km ATP, read-out: IC50 WT, Km ATP); 6 nM in experiment [2] (Km ATP, read-out: IC50 L858R/C797S, Km ATP); 3.2 nM in experiment [3] (Km ATP, read-out: IC50 L858R/T790M/C797S, Km ATP); 5.9 nM in experiment [4] (Km ATP, read-out: IC50 del19/T790M/C797S, Km ATP); 10.1 nM in experiment [5] (Km ATP, read-out: IC50 del19/C797S, Km ATP).
`O=S(=O)(C1CC1)n1cc(-c2nccc(Nc3cc(OC4CCC(O)C4)c(-c4cnn(C(F)F)c4)cn3)n2)cn1` (stereo not shown) [Example 72, 3-((2-((2-(1-(Cyclopropylsulfonyl)-1H-pyrazol-4-yl)pyrimidin-4-yl)amino)-5-(1-(difluoromethyl)-1H-pyrazol-4-yl)pyridin-4-yl)oxy)cyclopentan-1-ol]: the IC50 in experiment [1] (setting [6]) was more than 10000 nM; in experiment [1] (setting [7]), 199 nM; in experiment [2] (setting [8]), 189 nM; in experiment [2] (setting [9]), 9.4 nM; in experiment [3] (setting [10]) it was 5.8 nM; in experiment [3] (setting [11]), 0.8 nM. The IC50 in experiment [4] (setting [12]) amounted to 0.8 nM; in experiment [4] (setting [13]), 0.9 nM; in experiment [5] (setting [14]), 21.8 nM; in experiment [5] (setting [15]) it was 31.4 nM.
With `CN(C)CC[C@H]1CC[C@@H](Nc2cc(Nc3ccnc(-c4cnn(S(=O)(=O)C5CC5)c4)n3)ncc2-c2ccn(C(F)F)n2)CC1` [Example 211, N^2-(2-(1-(Cyclopropylsulfonyl)-1H-pyrazol-4-yl)pyrimidin-4-yl)-5-(1-(difluoromethyl)-1H-pyrazol-3-yl)-N^4-((1s,4s)-4-(2-(dimethylamino)ethyl)cyclohexyl)pyridine-2,4-diamine], the IC50 was found to be 0.3 nM in experiment [1] (setting [7]); 0.1 nM in experiment [2] (setting [9]); 0.3 nM in experiment [3] (setting [11]); 0.6 nM in experiment [4] (setting [13]); 0.4 nM in experiment [5] (setting [15]).
With `CN(CC(F)F)C[C@H]1CC[C@@H](Nc2cc(Nc3ccnc(-c4cnn(S(=O)(=O)C5CC5)c4)n3)ncc2-c2cc(C(F)(F)F)n(C)n2)CC1` [Example 259, N^2-(2-(1-(Cyclopropylsulfonyl)-1H-pyrazol-4-yl)pyrimidin-4-yl)-N^4-((1s,4s)-4-(((2,2-difluoroethyl)(methyl)amino)methyl)cyclohexyl)-5-(1-methyl-5-(trifluoromethyl)-1H-pyrazol-3-yl)pyridine-2,4-diamine], the IC50 is more than 10000 nM in experiment [1] (setting [6]); 819 nM in experiment [2] (setting [8]); 63.9 nM in experiment [3] (setting [10]); 172 nM in experiment [4] (setting [12]); 151 nM in experiment [5] (setting [14]).
